In patent US11083717B2, “Compositions and methods for drug sensitization of parasites” (The Texas A&M University System, priority 2015, dated 2021):
Like-named read-outs stand apart in the source and are kept apart here.

Assays:
human fibroblast = assay: in vitro
Source text: (§1) These tests included an IL-12 mouse model test to determine compound efficacy, verification of MIC50 for CP, cytotoxicity test for fibroblasts and yeast to determine potential toxic effects, a Human ether-a-go-go-related gene (hERG) test to determine potential cardiotoxicity, an AMES test tp determine mutagenic potential, a Safety Screen 44 test to determine common negative off-target drug interastion (Eurofins Cerep, SA, France), a cytochrome P450 (CYP) test to determine potential liver toxicity, a maximum tolerated dose, test, a Pharmacokinetics (PK) test to determine fate of the substance administered to a living organism tests for plasma stability in human and mouse, to measure the degradation of compound in plasma MClint and HClint test to determine in vitro intrinsic clearance for Mouse and Human, and kinetic solubility and plasma protein binding tests in mouse and human.

S. cerevisiae = assay: in vitro; conditions: Saccharomyces cerevisiae
Source text: as §1

Row | Compound | concentrations at which not toxic, human fibroblast cytotoxicity testing (human fibroblast) | concentrations at which not toxic, S. cerevisiae cytotoxicity testing (S. cerevisiae) | concentrations at which not toxic, human fibroblast cytotoxicity testing (human fibroblast; human)
1 | CC(C)NC(=O)Cc1ccc(Oc2nc3ccc(F)cc3s2)cc1O [NZ405, 2-{4-[(6-fluoro-1,3-benzothiazol-2-yl)oxy]-2-hydroxyphenyl}-N-(propan-2-yl)acetamide] | ≥ 100 µM | ≥ 100 µM | –
2 | CCOC(=O)[C@@H](C)Oc1ccc(Oc2nc3ccc(F)cc3s2)cc1 [NZ-251, ethyl (2R)-2-{4-[(6-fluoro-1,3-benzothiazol-2-yl)oxy]phenoxy}propanoate] | – | ≥ 100 µM | ≥ 100 µM
3 | O=C(O)Cc1ccc(Oc2nc3ccc(Cl)cc3s2)cc1 [NZ-287, 2-{4-[(6-chloro-1,3-benzothiazol-2-yl)oxy]phenyl}acetic acid] | – | ≥ 100 µM | ≥ 100 µM
4 | CON(C)C(=O)COc1ccc(Oc2cnc3cc(Cl)ccc3n2)cc1 [NZ-290, 2-{4-[(6-chloroquinoxalin-2-yl)oxy]phenoxy}-N-methoxy-N-methylacetamide] | ≥ 100 µM | ≥ 100 µM | –
5 | CONC(=O)Cc1ccc(Oc2nc3ccc(Cl)cc3s2)cc1 [NZ-293, 2-{4-[(6-chloro-1,3-benzothiazol-2-yl)oxy]phenyl}-N-methoxyacetamide] | – | ≥ 100 µM | ≥ 100 µM
6 | COC(=O)Cc1ccc(Oc2nc3ccc(F)cc3s2)cc1 [NZ-294, methyl 2-{4-[(6-fluoro-1,3-benzothiazol-2-yl)oxy]phenyl}acetate] | – | ≥ 100 µM | ≥ 100 µM
7 | O=C(O)Cc1ccc(Oc2cnc3cc(Cl)ccc3n2)cc1 [NZ-298, 2-{4-[(6-chloroquinoxalin-2-yl)oxy]phenyl}acetic acid] | – | ≥ 100 µM | ≥ 100 µM
8 | O=C(O)Cc1ccc(Oc2nc3ccc(F)cc3s2)cc1 [NZ-299, 2-{4-[(6-fluoro-1,3-benzothiazol-2-yl)oxy]phenyl}acetic acid] | ≥ 100 µM | ≥ 100 µM | –
9 | CONC(=O)Cc1ccc(Oc2nc3ccc(F)cc3s2)cc1 [NZ-300, 2-{4-[(6-fluoro-1,3-benzothiazol-2-yl)oxy]phenyl}-N-methoxyacetamide] | ≥ 100 µM | ≥ 100 µM | –
10 | CONC(=O)Cc1ccc(Oc2cnc3cc(Cl)ccc3n2)cc1 [NZ-301, 2-{4-[(6-chloroquinoxalin-2-yl)oxy]phenyl}-N-methoxyacetamide] | ≥ 100 µM | ≥ 100 µM | –
11 | COC(=O)COc1ccc(Oc2nc3ccc(F)cc3s2)cc1 [NZ-303, methyl 2-{4-[(6-fluoro-1,3-benzothiazol-2-yl)oxy]phenoxy}acetate] | – | – | ≥ 100 µM
12 | O=C(O)COc1ccc(Oc2nc3ccc(F)cc3s2)cc1 [NZ-304, 2-{4-[(6-fluoro-1,3-benzothiazol-2-yl)oxy]phenoxy}acetic acid] | – | ≥ 100 µM | ≥ 100 µM
13 | CONC(=O)COc1ccc(Oc2nc3ccc(F)cc3s2)cc1 [NZ-305, 2-{4-[(6-fluoro-1,3-benzothiazol-2-yl)oxy]phenoxy}-N-methoxyacetamide] | – | ≥ 100 µM | ≥ 100 µM
14 | CCNC(=O)COc1ccc(Oc2cnc3cc(Cl)ccc3n2)cc1 [NZ-306, 2-{4-[(6-chloroquinoxalin-2-yl)oxy]phenoxy}-N-ethylacetamide] | ≥ 100 µM | ≥ 100 µM | –
15 | CC(C)NC(=O)COc1ccc(Oc2cnc3cc(Cl)ccc3n2)cc1 [NZ-307, 2-{4-[(6-chloroquinoxalin-2-yl)oxy]phenoxy}-N-(propan-2-yl)acetamide] | ≥ 100 µM | ≥ 100 µM | –
16 | COC(=O)C(C)c1ccc(Oc2cnc3cc(Cl)ccc3n2)cc1 (stereo not drawn) [NZ-308, methyl 2-{4-[(6-chloroquinoxalin-2-yl)oxy]phenyl}propanoate] | – | ≥ 100 µM | ≥ 100 µM
17 | CC(C(=O)O)c1ccc(Oc2cnc3cc(Cl)ccc3n2)cc1 (stereo not drawn) [NZ-309, 2-{4-[(6-chloroquinoxalin-2-yl)oxy]phenyl}propanoic acid] | – | ≥ 100 µM | ≥ 100 µM
18 | CC(C(=O)O)c1ccc(Oc2nc3ccc(Cl)cc3s2)cc1 (stereo not drawn) [NZ-312, 2-{4-[(6-chloro-1,3-benzothiazol-2-yl)oxy]phenyl}propanoic acid] | – | ≥ 100 µM | ≥ 100 µM
19 | CONC(=O)C(O)c1ccc(Oc2nc3ccc(Cl)cc3s2)cc1 (stereo not drawn) [NZ-338, 2-{4-[(6-chloro-1,3-benzothiazol-2-yl)oxy]phenyl}-2-hydroxy-N-methoxyacetamide] | – | – | ≥ 100 µM

Row | Compound | concentrations at which not toxic, human fibroblast cytotoxicity testing (human fibroblast) | concentrations at which not toxic, S. cerevisiae cytotoxicity testing (S. cerevisiae) | concentrations at which not toxic, human fibroblast cytotoxicity testing (human fibroblast; human)
20 | CN(C)C(=O)Nc1ccc(Oc2cnc3cc(Cl)ccc3n2)cc1 [NZ-343, 1-{4-[(6-chloroquinoxalin-2-yl)oxy]phenyl}-3,3-dimethylurea] | – | – | ≥ 100 µM
21 | CC(C)NC(=O)Nc1ccc(Oc2cnc3cc(F)ccc3n2)cc1 [NZ-345, 1-{4-[(6-fluoroquinoxalin-2-yl)oxy]phenyl}-3-(propan-2-yl)urea] | ≥ 100 µM | – | –
22 | CC(C)NC(=O)Nc1ccc(Oc2ccc3cc(Cl)ccc3n2)cc1 [NZ-346, 1-{4-[(6-chloroquinolin-2-yl)oxy]phenyl}-3-(propan-2-yl)urea] | ≥ 100 µM | – | –
23 | NCc1ccc(Oc2nc3ccc(Cl)cc3s2)cc1 [NZ-348, {4-[(6-chloro-1,3-benzothiazol-2-yl)oxy]phenyl}methanamine] | – | 25 to 50 µM | –
24 | CN(C)C(=O)NCc1ccc(Oc2nc3ccc(Cl)cc3s2)cc1 [NZ-349, 1-({4-[(6-chloro-1,3-benzothiazol-2-yl)oxy]phenyl}methyl)-3,3-dimethylurea] | – | ≥ 100 µM | –
25 | CNC(=O)NCc1ccc(Oc2nc3ccc(Cl)cc3s2)cc1 [NZ-350, 1-({4-[(6-chloro-1,3-benzothiazol-2-yl)oxy]phenyl}methyl)-3-methylurea] | – | ≥ 100 µM | –
26 | CC(C)(C)OC(=O)Nc1ccc(Oc2nc3ccc(Cl)cc3s2)cc1 [NZ-351, tert-butyl N-{4-[(6-chloro-1,3-benzothiazol-2-yl)oxy]phenyl}carbamate] | – | ≥ 100 µM | –
27 | Nc1ccc(Oc2nc3ccc(Cl)cc3s2)cc1 [NZ-352, 4-[(6-chloro-1,3-benzothiazol-2-yl)oxy]aniline] | – | 25 to 50 µM | –
28 | CNC(=O)Nc1ccc(Oc2nc3ccc(Cl)cc3s2)cc1 [NZ-353, 1-{4-[(6-chloro-1,3-benzothiazol-2-yl)oxy]phenyl}-3-methylurea] | – | ≥ 100 µM | –
29 | CN(C)C(=O)Nc1ccc(Oc2nc3ccc(Cl)cc3s2)cc1 [NZ-354, 1-{4-[(6-chloro-1,3-benzothiazol-2-yl)oxy]phenyl}-3,3-dimethylurea] | – | 50 to 100 µM | –
30 | COC(=O)C(OC)c1ccc(Oc2nc3ccc(Cl)cc3s2)cc1 (stereo not drawn) [NZ-355, methyl 2-{4-[(6-chloro-1,3-benzothiazol-2-yl)oxy]phenyl}-2-methoxyacetate] | – | ≥ 100 µM | –
31 | COC(C(=O)O)c1ccc(Oc2nc3ccc(Cl)cc3s2)cc1 (stereo not drawn) [NZ-356] | – | ≥ 100 µM | –
32 | CONC(=O)C(OC)c1ccc(Oc2nc3ccc(Cl)cc3s2)cc1 (stereo not drawn) [NZ-357, 2-{4-[(6-chloro-1,3-benzothiazol-2-yl)oxy]phenyl}-N,2-dimethoxyacetamide] | – | ≥ 100 µM | –
33 | Cc1ccc2nc(Oc3ccc(NC(=O)NC(C)C)cc3)sc2c1 [NZ-358, 1-{4-[(6-methyl-1,3-benzothiazol-2-yl)oxy]phenyl}-3-(propan-2-yl)urea] | – | ≥ 100 µM | –
34 | CC(C)NC(=O)Nc1ccc(Oc2nc3ccc(Br)cc3s2)cc1 [NZ-359, 1-{4-[(6-bromo-1,3-benzothiazol-2-yl)oxy]phenyl}-3-(propan-2-yl)urea] | – | ≥ 100 µM | –
35 | CC(C)NC(=O)Nc1ccc(Oc2nc3ccccc3s2)cc1 [NZ-360, 1-{4-(1,3-benzothiazol-2-yloxy)phenyl]-3-(propan-2-yl)urea] | – | ≥ 100 µM | –
36 | C[C@@H](Oc1ccc(Oc2nc3ccc(Cl)cc3o2)cc1)C(=O)O [fenoxaprop-p, (R)-2-[4-(6-chlorobenzoxazol-2-yloxy)phenoxy]propionic acid, reference compound] | ≥ 100 µM | – | –
37 | CCOC(=O)[C@@H](C)Oc1ccc(Oc2nc3ccc(Cl)cc3o2)cc1 [fenoxaprop-p-ethyl, ethyl (2R)-2-{4-[(6-chloro-1,3-benzoxazol-2-yl)oxy]phenoxy}propanoate, reference compound] | – | – | ≥ 100 µM
